{
  "source": "PubChem BioAssay AID2060501",
  "about": "(Molecular Pharmacology Branch, DTP, NCI, 2025)",
  "tested_on": "282377-053-R-J1-PDC complex spheroids, viability",
  "assay": "Anticancer human tumor 282377-053-R-J1-PDC patient-derived colon adenocarcinoma cell line growth inhibition [GQUAD]",
  "conditions": "for IC50: curve of first compound; for viability, T/C: stronger effect = lower value",
  "text": "DNA G-quadruplex Stabilizer Agents in Combinations in Complex Spheroids\nA high-throughput screen of multi-cell type tumor spheroids was designed to identify active combinations of DNA G-quadruplex stabilizer agents and targeted small molecules. Complex spheroids include a stromal component modeled by human endothelial cells (HUVEC) and fibroblasts modeled by human mesenchymal stem cells (MSCs). The concentration ranges selected for each drug and investigational agent were based upon clinically achievable concentrations if the clinical Cmax of the agent was known.\nCompounds. The drugs and investigational agents: pidnarulex (CX-5461; NSC782164), APTO-253 (NSC789042), BRACO-19 (NSC847499), peposertib (NSC802822), ceralasertib (NSC780249), elimusertib (NSC800525), camonsertib (NSC841442), AZD-1390 (NSC803789), olaparib (NSC753686), talazoparib (NSC767125), ART-558 (NSC835418), sotorasib (NSC818433), MRTX-1133 (NSC836407), SN-38 (NSC673596), topotecan (NSC609699), etoposide (NSC141540), doxorubicin (NSC123127), gemcitabine (NSC613327), 5-fluorouracil (NSC19893), paclitaxel (NSC125973), vemurafenib (NSC761431), panobinostat (NSC761190), R-306465 (JNJ-16241199; NSC773264), adavosertib (NSC754352), TP-3654 (NSC805149), carboplatin (NSC241240), KSQ-4279 (NSC840948), and staurosporine (NSC755774) were obtained from the National Cancer Institute (NCI) Developmental Therapeutics Program Chemical Repository (34). The FDA-approved anticancer drug set is available from the NCI Developmental Therapeutics Program. […] The stock solutions were prepared in dimethyl sulfoxide (DMSO, Sigma-Aldrich, St. Louis, MO, cat. D2650) at 800-fold the tested concentration and stored at -70 degrees C prior to their use. All drugs and investigational agents were tested over a range starting from a high concentration at or near the clinical Cmax and decreasing in half-log increments. If the clinical Cmax for an agent had not been determined, the highest concentration tested was 10 microM.\n2.3 Cell Culture. All cells were maintained in an incubator at 37 degrees C and 5% CO2 with 95% humidity. The PDC lines were cultured according to standard operating procedures established by the NCI PDMR. All PDCs were thawed and cultured in Matrigel-coated flasks prepared with a working solution of 1X Ham's F-12 nutrient mix, without supplementation (Invitrogen, cat. 11765054), 100 U/mL penicillin-streptomycin (Invitrogen, cat. 15140122), and 2.5% Matrigel (Corning Inc., cat. 354248) for the first three passages. The 857933-349-R-J2-PDC line was cultured in 6C/Colon 1B media, which includes advanced DMEM/F-12 (Thermo Fisher Scientific, cat. 12634028), 10 mM HEPES (Thermo Fisher Scientific, cat. 15630080), 1X GlutaMAX supplement (Thermo Fisher Scientific, cat. 35050061), 0.1 mg/mL primocin (InvivoGen, cat. ant-pm-2), 10% defined fetal bovine serum, heat inactivated (HyClone Laboratories Inc., cat. SH30070.03HI), 50% L-WRN conditioned media (ATCC, cat. CRL-3276), 1.25 mM N-Acetyl-L-cysteine (Sigma-Aldrich, cat. A9165), 10 mM nicotinamide (Sigma-Aldrich, cat. N0636), 1X B-27 supplement (Thermo Fisher Scientific, cat. 17504044), 1X N-2 supplement (Thermo Fisher Scientific, cat. 17502048), 10 microM Y-27632 dihydrochloride (Tocris Bioscience, cat. 1254), and 50 ng/mL human EGF recombinant protein (Thermo Fisher Scientific, cat. PHG0311). The 485176-168-R4-J1-PDC line was cultured in Panc media, which includes all 6C/Colon 1B media components plus 100 ng/mL human FGF-10 (Thermo Fisher Scientific, cat. 100-26), 500 nM SB-431542 (Selleckchem, cat. S1067), and gastrin (Tocris, cat. 3006).\n[…]",
  "data": [
    {"molecule": "O=C(NO)c1cnc(N2CCN(S(=O)(=O)c3ccc4ccccc4c3)CC2)nc1", "note": "+ CN(C)c1ccc(Nc2c3ccc(NC(=O)CCN4CCCC4)cc3nc3cc(NC(=O)CCN4CCCC4)ccc23)cc1;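 further: spheroids exposed to compounds for 7 days before readout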;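 on viability, T/C: percent of vehicle DMSO control viability with 100% = untreated-like growth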", "values": [
      {"measurement": "IC50", "setting": "second compound 0.0316 µM", "value": 518, "unit": "nM"},
      {"measurement": "IC50", "setting": "second compound 0.1 µM", "value": 512, "unit": "nM"},
      {"measurement": "IC50", "setting": "second compound 0.316 µM", "value": 536, "unit": "nM"},
      {"measurement": "IC50", "setting": "second compound 1 µM", "value": 508, "unit": "nM"},
      {"measurement": "IC50", "setting": "second compound 3.16 µM", "value": 578, "unit": "nM"},
      {"measurement": "IC50", "setting": "second compound 10 µM", "value": 464, "unit": "nM"},
      {"measurement": "viability, T/C", "setting": "second compound 0.0316 µM, first compound 0.0316 µM", "value": 107, "unit": "%"},
      {"measurement": "viability, T/C", "setting": "second compound 0.0316 µM, first compound 0.1 µM", "value": 128, "unit": "%"},
      {"measurement": "viability, T/C", "setting": "second compound 0.0316 µM, first compound 0.316 µM", "value": 86.8, "unit": "%"},
      {"measurement": "viability, T/C", "setting": "second compound 0.0316 µM, first compound 1 µM", "value": 2.18, "unit": "%"},
      {"measurement": "viability, T/C", "setting": "second compound 0.0316 µM, first compound 3.16 µM", "value": 0.16, "unit": "%"},
      {"measurement": "viability, T/C", "setting": "second compound 0.0316 µM, first compound 10 µM", "value": 0.17, "unit": "%"},
      {"measurement": "viability, T/C", "setting": "second compound 0.1 µM, first compound 0.0316 µM", "value": 110, "unit": "%"},
      {"measurement": "viability, T/C", "setting": "second compound 0.1 µM, first compound 0.1 µM", "value": 93.4, "unit": "%"},
      {"measurement": "viability, T/C", "setting": "second compound 0.1 µM, first compound 0.316 µM", "value": 83.6, "unit": "%"},
      {"measurement": "viability, T/C", "setting": "second compound 0.1 µM, first compound 1 µM", "value": 3.12, "unit": "%"},
      {"measurement": "viability, T/C", "setting": "second compound 0.1 µM, first compound 3.16 µM", "value": 0.11, "unit": "%"},
      {"measurement": "viability, T/C", "setting": "second compound 0.1 µM, first compound 10 µM", "value": 0.12, "unit": "%"},
      {"measurement": "viability, T/C", "setting": "second compound 0.316 µM, first compound 0.0316 µM", "value": 111, "unit": "%"},
      {"measurement": "viability, T/C", "setting": "second compound 0.316 µM, first compound 0.1 µM", "value": 101, "unit": "%"},
      {"measurement": "viability, T/C", "setting": "second compound 0.316 µM, first compound 0.316 µM", "value": 90.6, "unit": "%"},
      {"measurement": "viability, T/C", "setting": "second compound 0.316 µM, first compound 1 µM", "value": 2.03, "unit": "%"},
      {"measurement": "viability, T/C", "setting": "second compound 0.316 µM, first compound 3.16 µM", "value": 0.1, "unit": "%"},
      {"measurement": "viability, T/C", "setting": "second compound 0.316 µM, first compound 10 µM", "value": 0.11, "unit": "%"},
      {"measurement": "viability, T/C", "setting": "second compound 1 µM, first compound 0.0316 µM", "value": 103, "unit": "%"},
      {"measurement": "viability, T/C", "setting": "second compound 1 µM, first compound 0.1 µM", "value": 120, "unit": "%"},
      {"measurement": "viability, T/C", "setting": "second compound 1 µM, first compound 0.316 µM", "value": 84, "unit": "%"},
      {"measurement": "viability, T/C", "setting": "second compound 1 µM, first compound 1 µM", "value": 2.22, "unit": "%"},
      {"measurement": "viability, T/C", "setting": "second compound 1 µM, first compound 3.16 µM", "value": 0.08, "unit": "%"},
      {"measurement": "viability, T/C", "setting": "second compound 1 µM, first compound 10 µM", "value": 0.11, "unit": "%"},
      {"measurement": "viability, T/C", "setting": "second compound 3.16 µM, first compound 0.0316 µM", "value": 113, "unit": "%"},
      {"measurement": "viability, T/C", "setting": "second compound 3.16 µM, first compound 0.1 µM", "value": 92.1, "unit": "%"},
      {"measurement": "viability, T/C", "setting": "second compound 3.16 µM, first compound 0.316 µM", "value": 106, "unit": "%"},
      {"measurement": "viability, T/C", "setting": "second compound 3.16 µM, first compound 1 µM", "value": 1.28, "unit": "%"},
      {"measurement": "viability, T/C", "setting": "second compound 3.16 µM, first compound 3.16 µM", "value": 0.14, "unit": "%"},
      {"measurement": "viability, T/C", "setting": "second compound 3.16 µM, first compound 10 µM", "value": 0.13, "unit": "%"},
      {"measurement": "viability, T/C", "setting": "second compound 10 µM, first compound 0.0316 µM", "value": 93, "unit": "%"},
      {"measurement": "viability, T/C", "setting": "second compound 10 µM, first compound 0.1 µM", "value": 87.8, "unit": "%"},
      {"measurement": "viability, T/C", "setting": "second compound 10 µM, first compound 0.316 µM", "value": 73.1, "unit": "%"},
      {"measurement": "viability, T/C", "setting": "second compound 10 µM, first compound 1 µM", "value": 3.72, "unit": "%"},
      {"measurement": "viability, T/C", "setting": "second compound 10 µM, first compound 3.16 µM", "value": 0.18, "unit": "%"},
      {"measurement": "viability, T/C", "setting": "second compound 10 µM, first compound 10 µM", "value": 0.17, "unit": "%"}
    ]}
  ]
}
